# US8729061B2, “Pyrrolidine derivatives” (Hoffmann-La Roche Inc., priority 2011, dated 2014)
# How the values were obtained:
# Format in all cases: biochemical
# human Cat K = human Cat K (Homo sapiens (Human), UniProt P43235); assay: Cathepsin enzyme inhibition assay (fluorogenic peptide substrate), Cat K; conditions: enzyme 1 nM, substrate Z-Leu-Arg-AMC 20 μM, pH 6.5
# Experimental: (§1) Enzyme activity is measured by observing the increase in fluorescence intensity caused by cleavage of a peptide substrate containing a fluorophore whose emission is quenched in the intact peptide.
# (§2) Assay buffer: 100 mM potassium phosphate pH 6.5, EDTA-Na 5 mM, Triton X-100 0.001%, DTT 5 mM.
# (§3) Enzymes (all at 1 nM): human and mouse Cathepsin S, Cat K, Cat B, Cat L. Substrate (20 μM): Z-Val-Val-Arg-AMC, except for Cat K which uses Z-Leu-Arg-AMC (both from Bachem).
# (§4) Excitation 360 nm, Emission 465 nm.
# (§5) Enzyme is added to the substance dilutions in 96-well microtitre plates and the reaction is started with substrate. […] IC50 are calculated by standard methods. Inhibition of human Cat S, mouse Cat S, human Cat K, mouse Cat K, human Cat B, mouse Cat B, human Cat L and mouse Cat L have been measured separately.
# human Cathepsin S = human Cathepsin S (Homo sapiens (Human), UniProt P25774); assay: Cathepsin enzyme inhibition assay (fluorogenic peptide substrate), Cat S; conditions: enzyme 1 nM, substrate Z-Val-Val-Arg-AMC 20 μM, pH 6.5
# Chain of human Cathepsin S (P25774 115-331): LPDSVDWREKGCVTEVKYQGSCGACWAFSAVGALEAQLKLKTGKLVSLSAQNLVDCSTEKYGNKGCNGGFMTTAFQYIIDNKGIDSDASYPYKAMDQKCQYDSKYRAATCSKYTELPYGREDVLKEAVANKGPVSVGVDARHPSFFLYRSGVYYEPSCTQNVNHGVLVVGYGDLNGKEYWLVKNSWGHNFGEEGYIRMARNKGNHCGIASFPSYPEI
# Experimental: as §1, §2, §3, §4, §5
# human Cat L = human Cat L (Homo sapiens (Human), UniProt P07711); assay: Cathepsin enzyme inhibition assay (fluorogenic peptide substrate), Cat L; conditions: enzyme 1 nM, substrate Z-Val-Val-Arg-AMC 20 μM, pH 6.5
# Chain of human Cat L (P07711 114-333): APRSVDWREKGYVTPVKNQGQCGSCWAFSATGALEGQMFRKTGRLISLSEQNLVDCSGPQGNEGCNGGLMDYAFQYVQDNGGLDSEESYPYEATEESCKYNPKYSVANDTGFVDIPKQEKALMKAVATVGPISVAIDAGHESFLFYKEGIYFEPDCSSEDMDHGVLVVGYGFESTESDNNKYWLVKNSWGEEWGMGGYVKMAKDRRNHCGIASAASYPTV
# Experimental: as §1, §2, §3, §4, §5
# human Cat B = human Cat B (Homo sapiens (Human), UniProt P07858); assay: Cathepsin enzyme inhibition assay (fluorogenic peptide substrate), Cat B; conditions: enzyme 1 nM, substrate Z-Val-Val-Arg-AMC 20 μM, pH 6.5
# Experimental: as §1, §2, §3, §4, §5
# Chain of human Cat K (P43235 115-329): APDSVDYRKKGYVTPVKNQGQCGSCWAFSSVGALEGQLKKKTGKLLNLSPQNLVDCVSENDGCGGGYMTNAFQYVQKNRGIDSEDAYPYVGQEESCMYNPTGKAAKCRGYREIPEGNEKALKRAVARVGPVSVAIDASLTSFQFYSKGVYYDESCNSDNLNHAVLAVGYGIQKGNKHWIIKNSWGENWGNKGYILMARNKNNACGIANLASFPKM
IC50 (human Cat K) [nM],IC50 (human Cathepsin S) [nM],IC50 (human Cat L) [nM],IC50 (human Cat B) [nM],Structure (SMILES)
37.3,0.668,10.4,150,"CC[C@H](NC(=O)[C@@H]1C[C@@H](S(=O)(=O)c2ccccc2Cl)CN1C(=O)C1(c2ccc(Br)cc2F)CC1)C(=O)C(=O)NC1CC1 [Example 14, (2S,4R)-1-(1-(4-bromo-2-fluorophenyl)cyclopropanecarbonyl)-4-(2-chlorophenylsulfonyl)-N—((S)-1-(cyclopropylamino)-1,2-dioxopentan-3-yl)pyrrolidine-2-carboxamide]"
44.8,0.52,8.2,98.5,"CC[C@H](NC(=O)[C@@H]1C[C@@H](S(=O)(=O)c2ccccc2Cl)CN1C(=O)C1(c2ccc(Br)cc2)CC1)C(=O)C(=O)NC1CC1 [Example 15, (2S,4R)-1-(1-(4-bromophenyl)cyclopropanecarbonyl)-4-(2-chlorophenylsulfonyl)-N—((S)-1-(cyclopropylamino)-1,2-dioxopentan-3-yl)pyrrolidine-2-carboxamide]"
20.2,0.442,5.9,45.4,"CCC[C@H](NC(=O)[C@@H]1C[C@@H](S(=O)(=O)c2ccccc2Cl)CN1C(=O)C1(c2ccc(Br)cc2)CC1)C(=O)C(=O)NC1CC1 [Example 16, (2S,4R)-1-(1-(4-bromophenyl)cyclopropanecarbonyl)-4-(2-chlorophenylsulfonyl)-N—((S)-1-(cyclopropylamino)-1,2-dioxohexan-3-yl)pyrrolidine-2-carboxamide]"
21,0.6,8.4,70.1,"CCC[C@H](NC(=O)[C@@H]1C[C@@H](S(=O)(=O)c2ccccc2Cl)CN1C(=O)C1(c2ccc(I)cc2)CC1)C(=O)C(=O)NC1CC1 [Example 18, (2S,4R)-4-(2-chlorophenylsulfonyl)-N—((S)-1-(cyclopropylamino)-1,2-dioxohexan-3-yl)-1-(1-(4-iodophenyl)cyclopropanecarbonyl)pyrrolidine-2-carboxamide]"
758,0.593,32.4,424,"CC[C@H](NC(=O)[C@@H]1C[C@@H](S(=O)(=O)c2ccccc2C(F)(F)F)CN1C(=O)C1(c2ncc(Cl)cc2F)CC1)C(=O)C(=O)NC1CC1 [Example 19, (2S,4R)-1-(1-(5-chloro-3-fluoropyridin-2-yl)cyclopropanecarbonyl)-N—((S)-1-(cyclopropylamino)-1,2-dioxopentan-3-yl)-4-(2-(trifluoromethyl)phenylsulfonyl)pyrrolidine-2-carboxamide]"
347,0.56,18.5,245,"CCC[C@H](NC(=O)[C@@H]1C[C@@H](S(=O)(=O)c2ccccc2C(F)(F)F)CN1C(=O)C1(c2ncc(Cl)cc2F)CC1)C(=O)C(=O)NC1CC1 [Example 20, (2S,4R)-1-(1-(5-chloro-3-fluoropyridin-2-yl)cyclopropanecarbonyl)-N—((S)-1-(cyclopropylamino)-1,2-dioxohexan-3-yl)-4-(2-(trifluoromethyl)phenylsulfonyl)pyrrolidine-2-carboxamide]"
406,0.668,28.7,165,"CC[C@H](NC(=O)[C@@H]1C[C@@H](S(=O)(=O)c2ccccc2C(F)(F)F)CN1C(=O)C1(c2ccc(Cl)cc2)CC1)C(=O)C(=O)NC1CC1 [Example 21, (2S,4R)-1-(1-(4-chlorophenyl)cyclopropanecarbonyl)-N—((S)-1-(cyclopropylamino)-1,2-dioxopentan-3-yl)-4-(2-(trifluoromethyl)phenylsulfonyl)pyrrolidine-2-carboxamide]"
405,0.983,26.6,144,"CCC[C@H](NC(=O)[C@@H]1C[C@@H](S(=O)(=O)c2ccccc2C(F)(F)F)CN1C(=O)C1(c2ccc(Cl)cc2)CC1)C(=O)C(=O)NC1CC1 [Example 22, (2S,4R)-1-(1-(4-chlorophenyl)cyclopropanecarbonyl)-N—((S)-1-(cyclopropylamino)-1,2-dioxohexan-3-yl)-4-(2-(trifluoromethyl)phenylsulfonyl)pyrrolidine-2-carboxamide]"
299,2.98,42.1,1230,"CC[C@H](NC(=O)[C@@H]1C[C@@H](S(=O)(=O)c2ccccc2Cl)CN1C(=O)C1(c2ncc(Br)cc2F)CC1)C(=O)C(=O)NC1CC1 [Example 23, (2S,4R)-1-(1-(5-bromo-3-fluoropyridin-2-yl)cyclopropanecarbonyl)-4-(2-chlorophenylsulfonyl)-N—((S)-1-(cyclopropylamino)-1,2-dioxopentan-3-yl)pyrrolidine-2-carboxamide]"
71.7,0.55,10.8,190,"CCC[C@H](NC(=O)[C@@H]1C[C@@H](S(=O)(=O)c2ccccc2Cl)CN1C(=O)C1(c2ncc(Cl)cc2F)CC1)C(=O)C(=O)NC1CC1 [Example 24, (2S,4R)-1-(1-(5-chloro-3-fluoropyridin-2-yl)cyclopropanecarbonyl)-4-(2-chlorophenylsulfonyl)-N—((S)-1-(cyclopropylamino)-1,2-dioxohexan-3-yl)pyrrolidine-2-carboxamide]"
97.7,0.403,9.8,251,"CC[C@H](NC(=O)[C@@H]1C[C@@H](S(=O)(=O)c2ccccc2Cl)CN1C(=O)C1(c2ncc(Cl)cc2F)CC1)C(=O)C(=O)NC1CC1 [Example 25, (2S,4R)-1-(1-(5-chloro-3-fluoropyridin-2-yl)cyclopropanecarbonyl)-4-(2-chlorophenylsulfonyl)-N—((S)-1-(cyclopropylamino)-1,2-dioxopentan-3-yl)pyrrolidine-2-carboxamide]"
25000,10.5,3100,25000,"CC(C)(NC(=O)[C@@H]1C[C@@H](S(=O)(=O)c2ccccc2Cl)CN1C(=O)C1(c2ccc(Cl)cc2)CC1)C(=O)C(=O)NC1CC1 [Example 26, (2S,4R)-1-(1-(4-chlorophenyl)cyclopropanecarbonyl)-4-(2-chlorophenylsulfonyl)-N-(4-(cyclopropylamino)-2-methyl-3,4-dioxobutan-2-yl)pyrrolidine-2-carboxamide]"
25000,17.9,6800,25000,"O=C(NC1CC1)C(=O)C1(NC(=O)[C@@H]2C[C@@H](S(=O)(=O)c3ccccc3Cl)CN2C(=O)C2(c3ccc(Cl)cc3)CC2)CC1 [Example 27, (2S,4R)-1-(1-(4-chlorophenyl)cyclopropanecarbonyl)-4-(2-chlorophenylsulfonyl)-N-(1-(2-(cyclopropylamino)-2-oxoacetyl)cyclopropyl)pyrrolidine-2-carboxamide]"
69,1.27,18.4,178,"CC(C)C[C@H](NC(=O)[C@@H]1C[C@@H](S(=O)(=O)c2ccccc2Cl)CN1C(=O)C1(c2ccc(Cl)cc2)CC1)C(=O)C(=O)NC1CC1 [Example 29, (2S,4R)-1-(1-(4-chlorophenyl)cyclopropanecarbonyl)-4-(2-chlorophenylsulfonyl)-N—((S)-1-(cyclopropylamino)-5-methyl-1,2-dioxohexan-3-yl)pyrrolidine-2-carboxamide]"
137,1.42,23.4,210,"O=C(NC1CC1)C(=O)[C@H](CC1CCCCC1)NC(=O)[C@@H]1C[C@@H](S(=O)(=O)c2ccccc2Cl)CN1C(=O)C1(c2ccc(Cl)cc2)CC1 [Example 30, (2S,4R)-1-(1-(4-chlorophenyl)cyclopropanecarbonyl)-4-(2-chlorophenylsulfonyl)-N—((S)-1-cyclohexyl-4-(cyclopropylamino)-3,4-dioxobutan-2-yl)pyrrolidine-2-carboxamide]"
24,0.734,7.7,29.4,"CCCCNC(=O)C(=O)[C@H](CCC)NC(=O)[C@@H]1C[C@@H](S(=O)(=O)c2ccccc2Cl)CN1C(=O)C1(c2ccc(Cl)cc2)CC1 [Example 32, (2S,4R)—N—((S)-1-(butylamino)-1,2-dioxohexan-3-yl)-1-(1-(4-chlorophenyl)cyclopropanecarbonyl)-4-(2-chlorophenylsulfonyl)pyrrolidine-2-carboxamide]"
52.9,1.11,13.6,77,"CC[C@H](NC(=O)[C@@H]1C[C@@H](S(=O)(=O)c2ccccc2Cl)CN1C(=O)C1(c2ccc(Cl)cc2)CC1)C(=O)C(=O)NCc1ccccc1 [Example 33, (2S,4R)—N—((S)-1-(benzylamino)-1,2-dioxopentan-3-yl)-1-(1-(4-chlorophenyl)cyclopropanecarbonyl)-4-(2-chlorophenylsulfonyl)pyrrolidine-2-carboxamide]"
444,0.787,28,399,"C[C@H](NC(=O)[C@@H]1C[C@@H](S(=O)(=O)c2ccccc2Cl)CN1C(=O)C1(c2ccc(Cl)cc2)CC1)C(=O)C(=O)NC1CC1 [Example 34, (2S,4R)-1-(1-(4-chlorophenyl)cyclopropanecarbonyl)-4-(2-chlorophenylsulfonyl)-N—((S)-4-(cyclopropylamino)-3,4-dioxobutan-2-yl)pyrrolidine-2-carboxamide]"
